Measured values as given in US8242280B2, “Fused ring heterocycle kinase modulators” (SGX Pharmaceuticals, Inc., priority 2007, dated 2012).

Experiments:
[1] = molecular target: T1, unphosphorylated T315I Abl kinase domain (Mus musculus, UniProt P00520, T315I); test: c-Abl T315I 0P bioassay (pyruvate kinase/lactate dehydrogenase coupled enzyme assay); type: biochemical; conditions: zero phosphorylation state (0P), 10 μM ATP, read-out: AbI T315I 0P IC50
T1 construct: purified and unphosphorylated T315I Abl kinase domain; made in house; host or cells: E. coli BL21(DE3) (Codon+RIL or pSA0145 strain)
T1 sequence (P00520 242-493 T315I limits assumed): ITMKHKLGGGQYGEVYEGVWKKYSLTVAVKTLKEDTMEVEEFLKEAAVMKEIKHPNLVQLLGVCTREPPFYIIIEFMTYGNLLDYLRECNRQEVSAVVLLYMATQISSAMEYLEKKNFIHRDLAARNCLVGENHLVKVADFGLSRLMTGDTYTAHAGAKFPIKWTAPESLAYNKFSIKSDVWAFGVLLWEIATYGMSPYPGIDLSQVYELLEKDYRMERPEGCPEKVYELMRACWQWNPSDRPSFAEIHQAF
From the text: Although the first of these examples uses the kinase domain of a mutant form of Abl T315I (“Abl T315I KD”), the kinase assays may use various forms of mutant and wild type enzymes, including, for example, the entire protein, the kinase domain, or a portion thereof (e.g. Abl Y393F). The kinases used in the assays may also be of varying phosphorylation states. In the c-Abl example, a mutant kinase at a zero phosphorylation state was used. c-Abl Pyruvate Kinase/Lactate Dehydrogenase Coupled Enzyme Assay
In the c-Abl Pyruvate Kinase (PK)/Lactate Dehydrogenase (LDH) Coupled Assay the protein kinase dependant phosphorylation of a substrate peptide was coupled to the oxidation of NADH. The oxidation of NADH to NAD+ was detected by monitoring a decrease in absorbance at 340 nm.
Materials: Abl substrate peptide=EAIYAAPFAKKK (SEQ ID NO: 1)—OH (Biopeptide, San Diego, Calif.); pNADH (Sigma Cat#N-8129, FW=709.4); 2M MgC12; 1M HEPES buffer, pH 7.5; Phosphoenolpyruvate (PEP) (Sigma Cat#P-7002, FW=234); Lactate dehydrogenase (LDH) (Worthington Biochemical Cat#2756); Pyruvate Kinase (PK) (Sigma Cat#P-9136); ATP (Sigma Cat#A-3377, FW=551); Greiner 384-well UV star plate; and purified and unphosphorylated T315I Abl kinase domain.
Stock Solutions: 10 mM NADH (7.09 mg/ml in miliQH2O) made fresh daily; 10 mM Abl substrate peptide (13.4 mg/ml in miliQH2O) stored at −20° C.; 100 mM HEPES buffer, pH 7.5 (5 ml 1M stock+45 ml miliQH2O); 100 mM MgCl2 (5 ml 2M MgCl2+95 ml dH2O); 100 MM PEP (23.4 mg/ml in dH2O) stored at −20° C.; 10 mM ATP (5.51 mg/ml in dH2O) stored at −20° C. (diluted 50 μl into total of 10 ml miliQH2O daily=50 μM ATP working stock); 1000 U/ml PK (U/mg varies with lot) flash-frozen under liquid N2 and stored at −80° C.; and 1000 U/ml LDH (U/mg varies with lot) flash-frozen under liquid N2 and stored at −80° C.
Standard Assay Setup for 384-well format (50 μl reaction): 300 μM NADH; 10 mM MgCl2; 2 mM PEP; 45U/ml PK; 60 U/ml LDH; 200 μM Abl substrate peptide; 2.5 μl test compound (in DMSO); 2 μg/ml Abl kinase domain; 10 μM ATP; 100 mM HEPES buffer. Positive controls contained DMSO with no test compound. Negative controls contained 5 μl of 0.5M EDTA (50 mM in the assay). The dephosphorylated form of the c-Abl T315I mutant was used in the biochemical screening assays. The kinase reaction was initiated at time t=0 by the addition of ATP.
Activity was measured by following the time-dependent loss of NADH by absorbance spectroscopy at 340 nm. The linear portion of the resulting progress curve was then analyzed by linear regression to get the activity in absorbance units/time, reported as the slope of that best fit line (moles/unit time can be calculated from using molar extinction coefficient for NADH at 340 nm, 6250M^−1 cm^−1).
Data was evaluated using the equation: Z′=1−[3*(σ++σ−)/|μ+−μ−|](Zhang, et al., 1999 J Biomol Screening 4(2) 67-73), where μ denotes the mean and σ the standard deviation. The subscript designates positive or negative controls. The Z′ score for a robust screening assay should be ≧0.50. The typical threshold=μ+−3*σ+. Any value that falls below the threshold was designated a “hit”.
Dose response was analyzed using the equation: y=min+{(max−min)/(1+10^[compound]−logIC50)}, where y is the observed initial slope, max=the slope in the absence of inhibitor, min=the slope at infinite inhibitor, and the IC50 is the [compound] that corresponds to ½ the total observed amplitude (Amplitude=max−min).
To measure modulation, activation, or inhibition of Abl KD, a test compound was added to the assay at a range of concentrations. Inhibitors may inhibit Abl KD activity at an IC50 in the micromolar range, the nanomolar range, or, for example, in the subnanomolar range.
An open-reading frame for c-Abl was amplified from a Mus musculus (mouse) cDNA library prepared from freshly harvested mouse liver using a commercially available kit (invitrogen) by PCR using the following primers: […]
The c-Abl T315I KD (kinase domain) was purified as follows. […]

[2] = molecular target: Ba/F3 cells, ABL1 WT (Homo sapiens, UniProt P00519); test: 96-well XTT cell survival assay, Ba/F3 ABL1 WT; type: cell-based; conditions: 72 hours, read-out: ABL1 WT XTT [Ba/F3] IC50
Description: (§1) MV4-11 and THP cells were maintained in Iscove's Modified Dulbecco's Medium supplemented with 10% fetal bovine serum (FBS) and penicillin/streptomycin, Ba/F3 cells were maintained in RPMI 1640 supplemented with 10% FBS, penicillin/streptomycin and 5 ng/ml recombinant mouse IL-3.
(§2) Compounds were tested in the following assays in duplicate.
(§3) 96-well XTT assay: Cells (e.g. BaF3 315I, M351I, or E255K cells) were grown in growth media containing various concentrations of compounds (duplicates) on a 96-well plate for 72 hours at 37° C. The starting cell number was 5000-8000 cells per well and volume was 120 μl. At the end of the 72-hour incubation, 40 μl of XTT labeling mixture (50:1 solution of sodium 3′-[1-(phenylamino-carbonyl)-3,4-tetrazolium]-bis(4-methoxy-6-nitro)benzene sulfonic acid hydrate and Electron-coupling reagent: PMS (N-methyl dibenzopyrazine methyl sulfate) were added to each well of the plate. After an additional 2-6 hours of incubation at 37° C., the absorbance reading at 405 nm with background correction at 650 nm was measured with a spectrophotometer.

[3] = molecular target: Ba/F3 cells, ABL1 T315I (Homo sapiens, UniProt P00519, T315I, cells depend on it); test: 96-well XTT cell survival assay, Ba/F3 ABL1 T315I; type: cell-based; conditions: 72 hours, read-out: ABL1 T315I XTT [Ba/F3] IC50
Description: as §1, §2, §3

Row | Structure (SMILES) | IC50 [1] [µM] | GI50 [2] [µM] | GI50 [3] [µM]
1 | COc1ccccc1-c1c[nH]c2ncc(-c3cnc(N)c(C(O)C(=O)N(C)C)c3)cc12 (stereo not drawn) | < 0.05 | < 1 | < 1
2 | COc1ccccc1-c1c[nH]c2ncc(-c3cccc(C(O)C(=O)N(C)CC4CCCO4)c3)cc12 (stereo not drawn) | < 0.05 | < 1 | < 1
3 | COc1ccccc1-c1n[nH]c2ncc(-c3cccc(C(C)O)c3)cc12 (stereo not drawn) | < 0.05 | < 1 | < 1
4 | CN(C)C(=O)C(O)c1cncc(-c2cnc3[nH]cc(-c4ccc(C#N)cc4)c3c2)c1 (stereo not drawn) | 0.05 to 0.5 | > 1 | > 1
5 | COc1ccccc1-c1n[nH]c2ncc(-c3cccc(C(=O)C(=O)N(C)CCN(C)C)c3)cc12 | < 0.05 | < 1 | < 1
6 | COc1ccccc1-c1c[nH]c2ncc(-c3cncc(C(O)C(N)=O)c3)cc12 (stereo not drawn) | < 0.05 | > 1 | > 1
7 | COc1ccccc1-c1c[nH]c2ncc(-c3cccc(C(O)C(=O)N(C)CC4CCOCC4)c3)cc12 (stereo not drawn) | < 0.05 | < 1 | < 1
8 | COc1ccccc1-c1n[nH]c2ncc(-c3cccc(C(O)C(=O)N(C)CC#N)c3)cc12 (stereo not drawn) | < 0.05 | < 1 | > 1
9 | COc1ccccc1-c1n[nH]c2ncc(-c3cccc(C(O)C(=O)N(C)Cc4ccco4)c3)cc12 (stereo not drawn) | < 0.05 | > 1 | > 1
10 | COc1ccccc1-c1c[nH]c2ncc(-c3cncc(C(O)C(=O)N(C)Cc4ccncc4)c3)cc12 (stereo not drawn) | < 0.05 | > 1 | > 1
11 | COc1ccccc1-c1c[nH]c2ncc(-c3ccnc(C(O)C(=O)N(C)C)n3)cc12 (stereo not drawn) | 0.05 to 0.5 | > 1 | > 1
12 | CNC(=O)C(O)c1cccc(-c2cnc3[nH]nc(-c4ccccc4OC)c3c2)c1 (stereo not drawn) | < 0.05 | < 1 | < 1
13 | CN(C)C(=O)C(O)c1cncc(-c2cnc3[nH]cc(-c4ccc(OC(F)(F)F)cc4)c3c2)c1 (stereo not drawn) | 0.05 to 0.5 | > 1 | > 1
14 | CN(C)C(=O)C(O)c1cncc(-c2cnc3[nH]cc(-c4ccccc4OC(F)(F)F)c3c2)c1 (stereo not drawn) | < 0.05 | < 1 | > 1
15 | COc1ccccc1-c1n[nH]c2ncc(-c3cccc(C(O)C(=O)N(C)CCN(C)C)n3)cc12 (stereo not drawn) | < 0.05 | > 1 | > 1
16 | COc1ccccc1-c1n[nH]c2ncc(-c3cccc(C(C)(O)C(=O)N(C)CCN(C)C)c3)cc12 (stereo not drawn) | < 0.05 | > 1 | > 1
17 | COc1ccc(F)cc1-c1c[nH]c2ncc(-c3cncc(C(O)C(=O)N(C)C)c3)cc12 (stereo not drawn) | < 0.05 | < 1 | < 1
18 | CN(C)C(=O)C(O)c1cncc(-c2cnc3[nH]cc(-c4cccc(S(C)(=O)=O)c4)c3c2)c1 (stereo not drawn) | > 0.5 | > 1 | > 1

Continued, in another order:

Row | IC50 [1] [µM] | Structure (SMILES) | GI50 [2] [µM] | GI50 [3] [µM]
19 | 0.05 to 0.5 | CN(C)C(=O)C(O)c1cncc(-c2cnc3[nH]cc(-c4ccnn4C)c3c2)c1 (stereo not drawn) [drawing 464] | > 1 | > 1
20 | < 0.05 | COc1ccccc1-c1n[nH]c2ncc(-c3cncc(C(O)C(=O)N(C)C)c3)cc12 (stereo not drawn) | < 1 | < 1
21 | < 0.05 | CNC(C(=O)N(C)C)c1cccc(-c2cnc3[nH]nc(-c4ccccc4OC)c3c2)c1 (stereo not drawn) | > 1 | > 1
22 | < 0.05 | CN(C)C(=O)C(O)c1cncc(-c2cnc3[nH]cc(-c4ccc(Cl)cc4)c3c2)c1 (stereo not drawn) | < 1 | > 1
23 | 0.05 to 0.5 | CN(C)C(=O)C(O)c1cncc(-c2cnc3[nH]cc(-c4ccc(N(C)C)cc4)c3c2)c1 (stereo not drawn) | > 1 | > 1
24 | < 0.05 | COc1ccccc1-c1n[nH]c2ncc(-c3cccc([C@H](O)[C@H](O)C(C)C)c3)cc12 | < 1 | < 1
25 | < 0.05 | CN(C)C(=O)C(O)c1cncc(-c2cnc3[nH]cc(-c4cccc(N(C)C)c4)c3c2)c1 (stereo not drawn) | < 1 | > 1
26 | < 0.05 | CC[C@@H]1OCO[C@H]1c1cccc(-c2cnc3[nH]nc(-c4ccccc4OC)c3c2)c1 | > 1 | > 1
27 | < 0.05 | COc1ccccc1-c1n[nH]c2ncc(-c3cccc(C(O)C(=O)N(C)CCO)c3)cc12 (stereo not drawn) | < 1 | < 1
28 | < 0.05 | COc1ccccc1-c1n[nH]c2ncc(-c3cccc(C(O)c4ccccn4)c3)cc12 (stereo not drawn) | < 1 | > 1
29 | < 0.05 | COc1ccccc1-c1c[nH]c2ncc(-c3cncc(C(=O)C(=O)N(C)C)c3)cc12 | < 1 | < 1
30 | < 0.05 | COc1ccccc1-c1n[nH]c2ncc(-c3cccc(C(O)C(=O)N(C4CC4)C4CCN(C)CC4)c3)cc12 (stereo not drawn) | < 1 | < 1
31 | < 0.05 | COc1ccccc1-c1c[nH]c2ncc(-c3cccc(C(N)CC(=O)N4CCC[C@@H]4CO)c3)cc12 (stereo partly drawn) | > 1 | > 1
32 | < 0.05 | Cc1ccc(-c2c[nH]c3ncc(-c4cncc(C(O)C(=O)N(C)C)c4)cc23)cc1 (stereo not drawn) | > 1 | > 1
33 | < 0.05 | Cc1n[nH]c(C)c1-c1c[nH]c2ncc(-c3cncc(C(O)C(=O)N(C)C)c3)cc12 (stereo not drawn) | > 1 | > 1
34 | < 0.05 | COc1ccccc1-c1c[nH]c2ncc(-c3cccc(C4(C)NC(=O)NC4=O)c3)cc12 (stereo not drawn) | < 1 | > 1
